Results on four molecules are retold here after patent US6831069B2, “Pyrrolo[2,3-d]pyrimidine nucleoside analogs” (priority 1999, dated 2004).

Each structure is given as a SMILES string. Counter-ions that a name gives are not always drawn.

Assay [1] concerns Human Prostate cancer cells, HTB81. Kind of assay: VEGF secretion, VEGF Elisa Assay. The settings on record: 72 hrs treatment. It is filed as cell-based. As for the experimental part: The compounds 23a(5′-R) and 23a(5′-S) are potent in inhibition of secretion of Vascular Endothelial Growth Factor (VEGF) from Human Prostate cancer cells, HTB81. VEGF is recognized as angiogenesis marker since this molecule is crucial for migration and growth of endothelial cells and microvessel formation in vivo. […] The compounds were applied just after plating for 72 hrs. After that, the medium was collected and the level of VEGF was measured using VEGF Elisa Assay (R & D Systems) and expressed as pg of VEGF per ml of the medium.

For assay [2] the test system is unchanged. Kind of assay: IL-8 secretion, IL-8 Elisa Assay. The settings on record: concentrations indicated in FIG. 12. It is filed as cell-based. An excerpt:
The compound 23a(5′-R) and 23a(5′-S) indicate an inhibitory effect on secretion of Interleukin-8 (IL-8) from human prostate cancer cells, HTB81. IL-8 belongs to the class of chemo-attractant chemokines (type alpha), which are involved in inflammation processes due to attraction of neutrophils. Chemokines, in general, are known to be produced by various types of cancer. It is proven in several studies that inhibition of chemokine production by cancer cells is beneficial for the host. […] The medium collected from the culture was analyzed for IL-8 level using IL-8 Elisa Assay from R&D Systems.

In assay [3] the test system is activated human T cells. Kind of assay: Analysis of cytokine mRNA (RT-PCR, Southern blot) in PMA-ION activated human T cells. It is filed as cell-based. To be noted: experiment corresponding to FIG. 18; FIG. 26.
Assay [4] concerns BALB/c and C57BL/6 lymph node CD4+ T cells. Kind of assay: Generation of murine Th1 cells, IL-4 and IFNγ ELISA after restimulation. It is filed as cell-based, mouse. The settings on record: murine CD4+ cells induced with IL-2, IFN-γ, IL-12; BALB/c and C57BL/6; versus without compound.
Assay [5] concerns B10.PL (H-2u) mice. Description: Murine EAE model of multiple sclerosis, prophylactic treatment. It is filed as in vivo, mouse. To be noted: 0.1 mg/kg IP daily for 10d before induction of disease.
In assay [6] the test system is PHA stimulated T-cells. Kind of assay: Type 1 and Type 2 cytokines in PHA stimulated T-cells. It is filed as cell-based, human. To be noted: FIG. 24.

For the molecule `C[C@@H](O)[C@H]1O[C@@H](n2cc(C#N)c3c(N)ncnc32)[C@H](O)[C@@H]1O` [23a(5′-R), 4-Amino-5-cyano-7-(5(R)-C-methyl-β-D-ribofuranosyl)pyrrolo[2,3-d]pyrimidine], in assay [1], the “secretion of VEGF” value was “inhibit secretion of VEGF in a dose-dependent manner”. Moreover, the “secretion of IL-8” value in assay [2] is recorded as “inhibit secretion of IL-8 in a dose-dependent manner”.
In the case of `C[C@H](O)[C@H]1O[C@@H](n2cc(C#N)c3c(N)ncnc32)[C@H](O)[C@@H]1O` [23a(5′-S), 4-Amino-5-cyano-7-(5(S)-C-methyl-β-D-ribofuranosyl)pyrrolo[2,3-d]pyrimidine], the “secretion of VEGF” value in assay [1] is reported as “inhibit secretion of VEGF in a dose-dependent manner”. Besides, in assay [2], the “secretion of IL-8” value is reported as “inhibit secretion of IL-8 in a dose-dependent manner”.
For the molecule `Cl.N=C(N)c1cn([C@@H]2O[C@H](CO)[C@@H](O)[C@H]2O)c2nc[nH]c(=O)c12` [ICN 17739, 7-(β-D-ribofuranosyl)pyrrolo[2,3-d]-4-pyrimidone-5-carboxamidine Hydrochloride], the “anti-inflammatory and anti-proliferative responses (RNA expression)” value in assay [3] was “induction of anti-inflammatory and anti-proliferative responses”.
As for `N=C(N)c1cn([C@@H]2O[C@H](CO)[C@H](O)C2O)c2nc[nH]c(=O)c12` (stereo partly drawn) [ICN 17739, 7-(β-D-ribofuranosyl)pyrrolo[2,3-d]-4-pyrimidone-5-carboxamidine Hydrochloride], in assay [4], the “IFN-γ production of induced Th1 cells” value is reported as “significantly decreased” and the “IL-4 production of induced Th1 cells” value was “significantly increased”. Further, in assay [5], the “MBP-specific Th2 cytokine producing T-cells” value was “induces MBP-specific Th2 cytokine producing T-cells” and the “onset of murine EAE” value is “clearly delayed onset”. Further, in assay [6], the “Type 1 cytokines” value is recorded as “significant decrease” and the “production of Type 2 cytokines” value is listed as “significant increase”.
